Article PMC12860872, “Preclinical evaluation of DOTAGA.Glu.(FAPI)2 and DO3A.Glu.(FAPI)2 as theranostics with human dosimetry extrapolation to lutetium-177 and terbium-161 analogs” (European Journal of Nuclear Medicine and Molecular Imaging, 2025)

Tested on: PC3-mice
Assay: Biodistribution in PC3-mice incl. blocking
Type: in vivo, mouse
Conditions: PC3-mice
Procedure: Male athymic Balb/C nude mice (6 weeks/20–25 g) were implanted with PC3 cells (3.5 × 10^6/100 µL PBS) into their right shoulder to develop tumors. The animals were used for biodistribution and PET/SPECT/CT imaging studies, once tumors reached 250–300 mm^3.
All mice were euthanized with intraperitoneal injection of pentobarbital (150 mg/kg), and selected organs were dissected, weighed, and measured for radioactivity using a gamma-counter. Results are expressed as % injected activity per gram tissue (% I.A./g), presented as mean ± SD (n = 3–4).

[1] = Blocking 4h (20 nmol unlabeled precursor)

- Uptake in Adrenal (4 h p.i.): 3±0.2 %I.A./g
- Uptake in Blood (4 h p.i.): 2.1±0.1 %I.A./g
- Uptake in Bone (4 h p.i.): 4±0.3 %I.A./g
- Uptake in Gallbladder (4 h p.i.): 2.7±1.6 %I.A./g
- Uptake in Heart (4 h p.i.): 0.9±0.1 %I.A./g
- Uptake in Intestine (4 h p.i.): 0.8±0.3 %I.A./g
- Uptake in Kidney (4 h p.i.): 2.6±0.4 %I.A./g
- Uptake in Liver (4 h p.i.): 1.7±0.2 %I.A./g
- Uptake in Lung (4 h p.i.): 1.1±0.1 %I.A./g
- Uptake in Muscle (4 h p.i.): 1.4±0.3 %I.A./g
- Uptake in Pancreas (4 h p.i.): 1.9±0.1 %I.A./g
- Uptake in Salivary glands (4 h p.i.): 6.2±1.2 %I.A./g
- Uptake in Spleen (4 h p.i.): 0.9±0.1 %I.A./g
- Uptake in Stomach (4 h p.i.): 0.8±0.1 %I.A./g
- Uptake in Tumor (4 h p.i.): 16.2±2.5 %I.A./g
- Uptake in Adrenal (24 h p.i.): 1.9±0.2 %I.A./g
- Uptake in Blood (24 h p.i.): 0.9±0.2 %I.A./g
- Uptake in Bone (24 h p.i.): 2.5±0.1 %I.A./g
- Uptake in Gallbladder (24 h p.i.): 0.4±0.1 %I.A./g
- Uptake in Heart (24 h p.i.): 0.6±0.1 %I.A./g
- Uptake in Intestine (24 h p.i.): 0.4±0.1 %I.A./g
- Uptake in Kidney (24 h p.i.): 1.3±0.2 %I.A./g
- Uptake in Liver (24 h p.i.): 2.1±0.2 %I.A./g
- Uptake in Lung (24 h p.i.): 0.6±0.2 %I.A./g
- Uptake in Muscle (24 h p.i.): 0.8±0.1 %I.A./g
- Uptake in Pancreas (24 h p.i.): 0.9±0.7 %I.A./g
- Uptake in Salivary glands (24 h p.i.): 2.9±0.5 %I.A./g
- Uptake in Spleen (24 h p.i.): 0.7±0.2 %I.A./g
- Uptake in Stomach (24 h p.i.): 0.4±0.1 %I.A./g
- Uptake in Tumor (24 h p.i.): 7.3±0.6 %I.A./g
- Uptake in Adrenal (48 h p.i.): 1.3±0.3 %I.A./g
- Uptake in Blood (48 h p.i.): 0.2±0.03 %I.A./g
- Uptake in Bone (48 h p.i.): 1.3±0.1 %I.A./g
- Uptake in Gallbladder (48 h p.i.): 0.1±0.1 %I.A./g
- Uptake in Heart (48 h p.i.): 0.4±0.04 %I.A./g
- Uptake in Intestine (48 h p.i.): 0.2±0.01 %I.A./g
- Uptake in Kidney (48 h p.i.): 1±0.2 %I.A./g
- Uptake in Liver (48 h p.i.): 1.9±0.5 %I.A./g
- Uptake in Lung (48 h p.i.): 0.3±0.1 %I.A./g
- Uptake in Muscle (48 h p.i.): 0.5±0.1 %I.A./g
- Uptake in Pancreas (48 h p.i.): 0.6±0.1 %I.A./g
- Uptake in Salivary glands (48 h p.i.): 2.2±0.3 %I.A./g
- Uptake in Spleen (48 h p.i.): 0.5±0.04 %I.A./g
- Uptake in Stomach (48 h p.i.): 0.3±0.03 %I.A./g
- Uptake in Tumor (48 h p.i.): 5.1 ± 0.1 %I.A./g
- Uptake in Adrenal (72 h p.i.): 0.9±0.02 %I.A./g
- Uptake in Blood (72 h p.i.): 0.1±0.03 %I.A./g
- Uptake in Bone (72 h p.i.): 0.9±0.2 %I.A./g
- Uptake in Gallbladder (72 h p.i.): 0.1±0.1 %I.A./g
- Uptake in Heart (72 h p.i.): 0.3±0.1 %I.A./g
- Uptake in Intestine (72 h p.i.): 0.1±0.02 %I.A./g
- Uptake in Kidney (72 h p.i.): 0.6±0.1 %I.A./g
- Uptake in Liver (72 h p.i.): 1.4±0.4 %I.A./g
- Uptake in Lung (72 h p.i.): 0.1±0.02 %I.A./g
- Uptake in Muscle (72 h p.i.): 0.2±0.02 %I.A./g
- Uptake in Pancreas (72 h p.i.): 0.4±0.03 %I.A./g
- Uptake in Salivary glands (72 h p.i.): 0.7±0.04 %I.A./g
- Uptake in Spleen (72 h p.i.): 0.3±0.1 %I.A./g
- Uptake in Stomach (72 h p.i.): 0.1±0.02 %I.A./g
- Uptake in Tumor (72 h p.i.): 3.2±0.3 %I.A./g
- Uptake in Adrenal (96 h p.i.): 0.5±0.01 %I.A./g
- Uptake in Blood (96 h p.i.): 0.03±0 %I.A./g
- Uptake in Bone (96 h p.i.): 0.6±0.1 %I.A./g
- Uptake in Gallbladder (96 h p.i.): 0.1±0.02 %I.A./g
- Uptake in Heart (96 h p.i.): 0.2±0.02 %I.A./g
- Uptake in Intestine (96 h p.i.): 0.1±0.02 %I.A./g
- Uptake in Kidney (96 h p.i.): 0.4±0.04 %I.A./g
- Uptake in Liver (96 h p.i.): 1.3±0.1 %I.A./g
- Uptake in Lung (96 h p.i.): 0.1±0.02 %I.A./g
- Uptake in Muscle (96 h p.i.): 0.1±0.1 %I.A./g
- Uptake in Pancreas (96 h p.i.): 0.2±0.02 %I.A./g
- Uptake in Salivary glands (96 h p.i.): 0.7±0.1 %I.A./g
- Uptake in Spleen (96 h p.i.): 0.3±0.03 %I.A./g
- Uptake in Stomach (96 h p.i.): 0.1±0.01 %I.A./g
- Uptake in Tumor (96 h p.i.): 2.2±0.2 %I.A./g
- Uptake in Adrenal [1]: 0.8±0.5 %I.A./g
- Uptake in Blood [1]: 0.03±0.01 %I.A./g
- Uptake in Bone [1]: 0.7±0.1 %I.A./g
- Uptake in Gallbladder [1]: 0.2±0.2 %I.A./g
- Uptake in Heart [1]: 0.2±0.04 %I.A./g
- Uptake in Intestine [1]: 0.1±0.02 %I.A./g
- Uptake in Kidney [1]: 0.5±0.1 %I.A./g
- Uptake in Liver [1]: 1.2±0.5 %I.A./g
- Uptake in Lung [1]: 0.1±0.04 %I.A./g
- Uptake in Muscle [1]: 0.2±0.04 %I.A./g
- Uptake in Pancreas [1]: 0.2±0.2 %I.A./g
- Uptake in Salivary glands [1]: 0.6±0.2 %I.A./g
- Uptake in Spleen [1]: 0.3±0.1 %I.A./g
- Uptake in Stomach [1]: 0.09±0.02 %I.A./g
- Uptake in Tumor [1]: 2.9±1.8 %I.A./g
- tumor uptake (at 1 h p.i. as printed): ~ 15 %I.A./g
- drop of tumor uptake (washed-out) (at 24 h vs 4 h p.i.): ~ 50%
SMILES: N#C[C@@H]1CC(F)(F)CN1C(=O)CNC(=O)c1ccnc2ccc(OCCCCNC(=O)CC[C@H](NC(=O)CCC(C(=O)O)N3CCN(CC(=O)[O-])CCN(CC(=O)[O-])CCN(CC(=O)[O-])CC3)C(=O)NCCCCOc3ccc4nccc(C(=O)NCC(=O)N5CC(F)(F)C[C@H]5C#N)c4c3)cc12.[177Lu+3] (some centres unmarked) [[^177Lu]Lu-DOTAGA.Glu.(FAPI)2]
